Consider 17 molecules from PubChem BioAssay (NCI).

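Grown in 96-well plates, cells were treated for 48 hours with each compound at five concentrations. Insufficient inhibition: endpoint recorded as highest concentration tested. TGI marks complete inhibition of growth.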

What all share (experiment): inhibition of tumour cell growth, NCI panel, 48 h
For assay [1], the system named is NCI-H460 lung.
For assay [2], the system named is SF-539 CNS.
Assay [3] has as its system CCRF-CEM leukemia.
For assay [4], the system named is M14 melanoma.
In assay [5] the test system is OVCAR-4 ovarian.
Assay [6] concerns RPMI-8226 leukemia.
Assay [7] deals with OVCAR-5 ovarian.
The test system of assay [8] is SK-MEL-5 melanoma.
Assay [9] concerns A549 NSCLC.
Assay [10] has as its system RXF 393 renal.
Assay [11] relates to TK-10 renal.
The test system of assay [12] is K-562 leukemia.
In assay [13] the test system is MDA-MB-435.

As to `CC(C)C1=C(Cc2ccccc2)C(=O)O/C1=C\c1cc(Cl)c(O)c(Cl)c1`, the TGI came out at 41.2 µM in assay [1]; 44.4 µM in assay [2]; 41.5 µM in assay [3]; 35.6 µM in assay [4]; 30.1 µM in assay [5]; 65.6 µM in assay [6]. Further, the TGI in assay [7] was 43.7 µM; in assay [8], 34.5 µM; in assay [9], 50.5 µM; in [10], 30.5 µM; in assay [11], 55.1 µM; in assay [12], 40.5 µM. This molecule also had a TGI in [13] of 35.4 µM.
For the molecule `CC1(C)OC(=C(C#N)C#N)C(C#N)=C1/C=C/c1ccncc1`, the TGI in assay [1] amounted to 22.4 µM; in assay [2], 3.49 µM; in assay [3] it was 2.4 µM; in [4], 6.56 µM; in [5], 8.91 µM; in assay [6], 4.21 µM. For the same molecule, the TGI amounted to 8.11 µM in assay [7]; 14.4 µM in assay [8]; 34.1 µM in assay [9]; 5.07 µM in [10]; 4.12 µM in assay [11]; 7.04 µM in assay [12]. In addition, in assay [13], the TGI turned out to be 10.6 µM.
Regarding `O=C1NN=C2C=C(c3ccc(Cl)cc3)CC(c3cccc(Cl)c3)C12` (stereo unspecified), the TGI in assay [1] is 47.2 µM; in assay [2] it was 55.7 µM; in assay [3] it was 71.7 µM; in assay [4] it was above 100 µM; in [5] it was 66.5 µM; in assay [6] it was 57 µM. The TGI in assay [7] was 75.7 µM; in [8], 39.9 µM; in assay [9], 37.2 µM; in assay [10] it was 38.5 µM; in assay [11] it was 48.1 µM; in assay [12], 41.8 µM. The TGI in assay [13] came to 40.2 µM.
On to `Nc1nc2c(ncn2Cc2ccc(CO)cc2)c(=O)[nH]1`, for which the TGI in [1], in [2], in assay [3], in [4], in [5] and in assay [6] was above 100 µM each time. The TGI in assay [7], in [8], in assay [9], in [10], in [11] and in assay [12] was above 100 µM throughout. Further, in assay [13], the TGI is above 100 µM.
For the molecule `CN(C)/C=N/n1c2ccccc2c2ccccc21`, the TGI in [1], in assay [2], in assay [3], in [4], in assay [5] and in assay [6] was above 100 µM each time. The TGI in [7], in assay [8], in assay [9], in assay [10], in [11] and in [12] was above 100 µM throughout. In assay [13], this molecule displayed a TGI above 100 µM.
In the case of `CCCCn1c(C)c2c(c1C)C(=O)N(CC(O)CN1CCc3ccccc3C1)C2=O` (stereo unspecified), the TGI in [1], in assay [2], in [3], in assay [4], in assay [5] and in assay [6] was above 100 µM each time. For the same molecule, the TGI in assay [7], in [8], in assay [9], in assay [10], in assay [11] and in assay [12] was above 100 µM in each case. This molecule also returned a TGI in assay [13] above 100 µM.
Turning to `O=C1C[C@H]2[C@@H](O1)[C@@H](O)CN1C(=O)c3ccccc3[C@H]21`, the TGI in assay [1], in assay [2], in assay [3], in [4], in assay [5] and in assay [6] was above 100 µM in each case. Further, the TGI in [7], in [8], in assay [9], in assay [10], in [11] and in assay [12] was above 100 µM in each case. The TGI in assay [13] is above 100 µM.
Turning to `CCOP(=O)(O)C(C)(C)NC`, the TGI in [1], in [2], in [3], in assay [4], in assay [5] and in assay [6] was above 100 µM throughout. The TGI in assay [7], in assay [8], in [9], in assay [10], in [11] and in [12] was above 100 µM throughout. In assay [13], the TGI is above 100 µM.
Take `COc1ccc(OC)c(C2Cc3cnc4nc(N)nc(N)c4c3C2)c1` (stereo unspecified): the TGI in assay [1] was 73.6 µM; in [2], 28 µM; in [3], above 100 µM; in assay [4], above 100 µM; in assay [5], 53.8 µM; in assay [6], 94.7 µM. In addition, the TGI in assay [7] is 97.1 µM; in assay [8], above 100 µM; in assay [9] it was above 100 µM; in assay [10], 43.2 µM; in [11] it was 79.8 µM; in assay [12] it was above 100 µM. Besides, the TGI in assay [13] worked out at 65 µM.
As for `CC1C[C@]2(C)C(=O)Nc3ccccc3[C@@H]2Nc2ccccc21` (stereo partly specified), the TGI in assay [1] is 65.8 µM; in assay [2], 63.5 µM; in [3], 63.4 µM; in assay [4], 55.3 µM; in assay [5], above 100 µM; in [6] it was 59.5 µM. Also, the TGI in assay [7] was above 100 µM; in assay [8], 31.3 µM; in [9], above 100 µM; in assay [10] it was 77.9 µM; in assay [11], 58 µM; in assay [12], above 100 µM. Moreover, in assay [13], the TGI stood at 55.5 µM.
As to `COc1cc(C2SCC(=O)N2c2ccc(Cl)c(Cl)c2)cc(OC)c1OC` (stereo unspecified), the TGI in assay [1] was above 100 µM; in assay [2], above 100 µM; in [3], 51.3 µM; in assay [4], above 100 µM; in assay [5], above 100 µM; in assay [6], above 78.6 µM. Also, the TGI was 98.3 µM in assay [7]; above 100 µM in assay [8]; above 100 µM in assay [9]; 43.5 µM in [10]; above 100 µM in assay [11]; above 100 µM in [12]. Further, the TGI in assay [13] came out at 34 µM.
For `CC(C)(C)c1cc(C(=O)/C=C/C=C/c2ccccc2)cc(C(C)(C)C)c1O`, the TGI in assay [1] was 31.5 µM; in assay [2], 33.6 µM; in assay [3], 15.5 µM; in [4] it was 41.4 µM; in [5], above 100 µM; in assay [6] it was 29.9 µM. For the same molecule, the TGI in [7] was above 87 µM; in assay [8] it was 37.2 µM; in [9], 47.3 µM; in [10], 15.1 µM; in [11], 59.2 µM; in [12], above 100 µM. In assay [13], the TGI is above 70.4 µM.
On to `C[C@H]1C2Cc3cc(N)ccc3[C@@]1(C)CCN2CCc1ccccc1`, for which the TGI in [1] is above 100 µM; in assay [2], above 100 µM; in assay [3], above 100 µM; in assay [4], 40 µM; in assay [5], above 100 µM; in assay [6] it was above 100 µM. In addition, the TGI was above 100 µM in [7]; 37.2 µM in assay [8]; above 100 µM in [9]; above 100 µM in assay [10]; above 100 µM in [11]; above 100 µM in assay [12]. The TGI in assay [13] is above 100 µM.
Take `C[C@@]12CCC3C1C=C1C(=O)c4cc(O)ccc4C(=O)[C@]1(O2)[C@@]3(C)C=O`: the TGI in [1] worked out at 10.6 µM; in [2], 12.3 µM; in [3], 4.02 µM; in assay [4], 19.9 µM; in assay [5] it was 15.7 µM; in [6], 9.01 µM. The TGI in assay [7] is 26.3 µM; in assay [8], 16.1 µM; in assay [9], 27.2 µM; in [10], 14.1 µM; in assay [11], 21.7 µM; in assay [12], 12.5 µM. In addition, the TGI in assay [13] is 11.3 µM.
As for `O=[N+]([O-])c1ccc(S(=O)(=O)N=Ic2ccccc2)cc1`, the TGI in assay [1], in [2], in assay [3], in [4], in [5] and in [6] was above 100 µM in each case. In addition, the TGI in assay [7], in [8], in assay [9], in assay [10], in assay [11] and in [12] was above 100 µM each time. The molecule further came in with a TGI in assay [13] above 100 µM.
Take `CC(NNC(=O)CC(=O)N(C(=O)c1ccccc1)c1ccc(Cl)cc1)c1cc2ccccc2oc1=O` (stereo unspecified): the TGI in assay [1], in assay [2], in [3], in assay [4], in [5] and in [6] was above 10 µM throughout. The TGI in [7], in assay [8], in [9], in [10], in [11] and in assay [12] was above 10 µM in each case. Moreover, the TGI in assay [13] is above 10 µM.
Regarding `CC(=O)Nc1ccc2cc(C)c(=O)[nH]c2n1`, the TGI in assay [1], in [2], in assay [3], in assay [4], in assay [5] and in [6] was above 100 µM in each case. In addition, the TGI in assay [7], in assay [8], in assay [9], in assay [10], in assay [11] and in assay [12] was above 100 µM in each case. The TGI in assay [13] is above 100 µM.
